From the NIST ThermoML archive (doi:10.1021/acs.jced.5b00197)
± gives the expanded uncertainty stated by the source.

Experiments:
[1] = xn = mol fraction of the nth substance listed; conditions: 96.64 kPa, Liquid, mechanical oscillator
[2] = refractive index (Na D-line) (dimensionless); xn = mol fraction of the nth substance listed; conditions: 94.64 kPa, Liquid, Standard Abbe refractometry

## CC(=O)O [acetic acid] + O
[1]; 293.15 K, x1 = 0.0322
  mass density: 1013.1 ± 6.2 kg/m3
[1]; 293.15 K, x1 = 0.0697
  mass density: 1029.11 ± 6 kg/m3
[1]; 293.15 K, x1 = 0.114
  mass density: 1040.03 ± 5.8 kg/m3
[1]; 293.15 K, x1 = 0.167
  mass density: 1049.79 ± 5.5 kg/m3
[1]; 293.15 K, x1 = 0.231
  mass density: 1057.69 ± 5.2 kg/m3
[1]; 293.15 K, x1 = 0.31
  mass density: 1064.29 ± 4.9 kg/m3
[1]; 293.15 K, x1 = 0.412
  mass density: 1068.57 ± 4.5 kg/m3
[1]; 293.15 K, x1 = 0.545
  mass density: 1068.93 ± 4.2 kg/m3
[1]; 293.15 K, x1 = 0.629
  mass density: 1067.42 ± 4.1 kg/m3
[1]; 293.15 K, x1 = 0.729
  mass density: 1062.82 ± 4 kg/m3
[1]; 293.15 K, x1 = 0.85
  mass density: 1059.62 ± 4 kg/m3
[1]; 293.15 K, x1 = 1
  mass density: 1049.63 ± 4 kg/m3
[1]; 298.15 K, x1 = 0.0322
  mass density: 1010.07 ± 6.2 kg/m3
[1]; 298.15 K, x1 = 0.0697
  mass density: 1024.31 ± 6 kg/m3
[1]; 298.15 K, x1 = 0.114
  mass density: 1036.43 ± 5.8 kg/m3
[1]; 298.15 K, x1 = 0.167
  mass density: 1045.44 ± 5.5 kg/m3
[1]; 298.15 K, x1 = 0.231
  mass density: 1053.12 ± 5.2 kg/m3
[1]; 298.15 K, x1 = 0.31
  mass density: 1059.45 ± 4.9 kg/m3
[1]; 298.15 K, x1 = 0.412
  mass density: 1063.31 ± 4.5 kg/m3
[1]; 298.15 K, x1 = 0.545
  mass density: 1063.47 ± 4.2 kg/m3
[1]; 298.15 K, x1 = 0.629
  mass density: 1061.15 ± 4.1 kg/m3
[1]; 298.15 K, x1 = 0.729
  mass density: 1058.08 ± 4 kg/m3
[1]; 298.15 K, x1 = 0.85
  mass density: 1053.73 ± 4 kg/m3
[1]; 298.15 K, x1 = 1
  mass density: 1043.57 ± 4 kg/m3
[1]; 303.15 K, x1 = 0.0322
  mass density: 1007.37 ± 6.2 kg/m3
[1]; 303.15 K, x1 = 0.0697
  mass density: 1021.16 ± 6 kg/m3
[1]; 303.15 K, x1 = 0.114
  mass density: 1032.93 ± 5.8 kg/m3
[1]; 303.15 K, x1 = 0.167
  mass density: 1039.59 ± 5.5 kg/m3
[1]; 303.15 K, x1 = 0.231
  mass density: 1048.56 ± 5.2 kg/m3
[1]; 303.15 K, x1 = 0.31
  mass density: 1054.48 ± 4.8 kg/m3
[1]; 303.15 K, x1 = 0.412
  mass density: 1058.16 ± 4.5 kg/m3
[1]; 303.15 K, x1 = 0.545
  mass density: 1058.01 ± 4.2 kg/m3
[1]; 303.15 K, x1 = 0.629
  mass density: 1057.17 ± 4.1 kg/m3
[1]; 303.15 K, x1 = 0.729
  mass density: 1053.26 ± 4 kg/m3
[1]; 303.15 K, x1 = 0.85
  mass density: 1047.95 ± 4 kg/m3
[1]; 303.15 K, x1 = 1
  mass density: 1037.64 ± 4 kg/m3
[2]; 293.15 K, x1 = 0.0322
  refractive index: 1.34079 ± 0.001
[2]; 293.15 K, x1 = 0.0697
  refractive index: 1.34792 ± 0.001
[2]; 293.15 K, x1 = 0.114
  refractive index: 1.35489 ± 0.00096
[2]; 293.15 K, x1 = 0.167
  refractive index: 1.3609 ± 0.00092
[2]; 293.15 K, x1 = 0.231
  refractive index: 1.36583 ± 0.00086
[2]; 293.15 K, x1 = 0.31
  refractive index: 1.37062 ± 0.0008
[2]; 293.15 K, x1 = 0.412
  refractive index: 1.37406 ± 0.00072
[2]; 293.15 K, x1 = 0.545
  refractive index: 1.37703 ± 0.00062
[2]; 293.15 K, x1 = 0.629
  refractive index: 1.37724 ± 0.00056
[2]; 293.15 K, x1 = 0.729
  refractive index: 1.37721 ± 0.00049
[2]; 293.15 K, x1 = 0.85
  refractive index: 1.37559 ± 0.00042
[2]; 293.15 K, x1 = 1
  refractive index: 1.37224 ± 0.00036
[2]; 298.15 K, x1 = 0.0322
  refractive index: 1.34007 ± 0.001
[2]; 298.15 K, x1 = 0.0697
  refractive index: 1.34695 ± 0.001
[2]; 298.15 K, x1 = 0.114
  refractive index: 1.35372 ± 0.00096
[2]; 298.15 K, x1 = 0.167
  refractive index: 1.35957 ± 0.00092
[2]; 298.15 K, x1 = 0.231
  refractive index: 1.36436 ± 0.00086
[2]; 298.15 K, x1 = 0.31
  refractive index: 1.369 ± 0.0008
[2]; 298.15 K, x1 = 0.412
  refractive index: 1.37233 ± 0.00072
[2]; 298.15 K, x1 = 0.545
  refractive index: 1.37519 ± 0.00062
[2]; 298.15 K, x1 = 0.629
  refractive index: 1.37545 ± 0.00056
[2]; 298.15 K, x1 = 0.729
  refractive index: 1.3753 ± 0.00049
[2]; 298.15 K, x1 = 0.85
  refractive index: 1.37359 ± 0.00042
[2]; 298.15 K, x1 = 1
  refractive index: 1.37012 ± 0.00036
[2]; 303.15 K, x1 = 0.0322
  refractive index: 1.33927 ± 0.001
[2]; 303.15 K, x1 = 0.0697
  refractive index: 1.34593 ± 0.001
[2]; 303.15 K, x1 = 0.114
  refractive index: 1.3525 ± 0.00096
[2]; 303.15 K, x1 = 0.167
  refractive index: 1.35822 ± 0.00092
[2]; 303.15 K, x1 = 0.231
  refractive index: 1.36288 ± 0.00086
[2]; 303.15 K, x1 = 0.31
  refractive index: 1.36736 ± 0.0008
[2]; 303.15 K, x1 = 0.412
  refractive index: 1.37058 ± 0.00072
[2]; 303.15 K, x1 = 0.545
  refractive index: 1.37331 ± 0.00062
[2]; 303.15 K, x1 = 0.629
  refractive index: 1.37349 ± 0.00056
[2]; 303.15 K, x1 = 0.729
  refractive index: 1.37335 ± 0.00049
[2]; 303.15 K, x1 = 0.85
  refractive index: 1.3716 ± 0.00042
[2]; 303.15 K, x1 = 1
  refractive index: 1.36809 ± 0.00036
